Test results published in patent US8952039B2, “Pyridone derivatives and their use in the treatment, ameloriation or prevention of a viral disease” (priority 2013, dated 2015).

Molecular target: T1, influenza A virus (IAV) PA-Nter fragment (amino acids 1-209) (Influenza A virus, UniProt P31343)
T1 construct: PA-Nter fragment (amino acids 1-209); made in house
Assay: FRET endonuclease activity assay
Type: biochemical
Settings: 10 μM compound; % reduction of v0 compared to untreated

Structure (SMILES)	inhibition at 10 µM
CC(C)NC(=O)c1c(O)c(=O)cc(CNS(=O)(=O)c2ccccc2)n1C	13%
CC(C)NC(=O)c1c(O)c(=O)cc(CNS(=O)(=O)c2cccc(Cl)c2)n1C	13%
CC(C)NC(=O)c1c(O)c(=O)cc(CNS(=O)(=O)c2ccc(Cl)cc2)n1C	11%
Cc1cccc(S(=O)(=O)NCc2cc(=O)c(O)c(C(=O)NC(C)C)n2C)c1	36%
Cc1ccc(S(=O)(=O)NCc2cc(=O)c(O)c(C(=O)NC(C)C)n2C)cc1	8%
CC(C)NC(=O)c1c(O)c(=O)ccn1C(C)Cc1ccccc1 (centres unmarked)	7%
CNC(=O)c1c(O)c(=O)cc(Cc2ccccc2-c2ccccc2)n1C	10%
CC(C)NC(=O)c1c(O)c(=O)cc(Cc2ccccc2-c2ccccc2)n1C	13%
Cn1c(Cc2ccccc2-c2ccccc2)cc(=O)c(O)c1C(N)=O	17%
CNC(=O)c1c(O)c(=O)cc(CNS(=O)(=O)c2ccccc2)n1C	13%
CNC(=O)c1c(O)c(=O)cc(CNS(=O)(=O)c2ccc(C)cc2)n1C	10%
CNC(=O)c1c(O)c(=O)cc(CNS(=O)(=O)c2cccc(C)c2)n1C	33%
CNC(=O)c1c(O)c(=O)cc(CNS(=O)(=O)c2ccc(Cl)cc2)n1C	7%
CNC(=O)c1c(O)c(=O)cc(CNS(=O)(=O)c2cccc(Cl)c2)n1C	23%

Same assay, conditions: calculated from initial reaction velocities (v0); 0.5 μM PA-Nter, 1.6 μM RNA substrate

Structure (SMILES)	IC50
Cn1c(CNS(=O)(=O)c2ccccc2)cc(=O)c(O)c1C(=O)O	560 nM
Cn1c(CNS(=O)(=O)c2ccc(Cl)cc2)cc(=O)c(O)c1C(=O)O	1140 nM
Cn1c(CNS(=O)(=O)c2cccc(Cl)c2)cc(=O)c(O)c1C(=O)O	150 nM
Cn1c(CNS(=O)(=O)c2ccccc2Cl)cc(=O)c(O)c1C(=O)O	110 nM
Cc1ccc(S(=O)(=O)NCc2cc(=O)c(O)c(C(=O)O)n2C)cc1	970 nM
Cc1ccccc1S(=O)(=O)NCc1cc(=O)c(O)c(C(=O)O)n1C	280 nM
Cc1cccc(S(=O)(=O)NCc2cc(=O)c(O)c(C(=O)O)n2C)c1	530 nM
CC(C)NC(=O)c1c(O)c(=O)cc(CNS(=O)(=O)c2ccccc2Cl)n1C	6300 nM
Cc1ccccc1S(=O)(=O)NCc1cc(=O)c(O)c(C(=O)NC(C)C)n1C	4600 nM
Cn1c(Cc2ccccc2-c2ccccc2)cc(=O)c(O)c1C(=O)O	400 nM
CNC(=O)c1c(O)c(=O)cc(CNS(=O)(=O)c2ccccc2C)n1C	12200 nM
CNC(=O)c1c(O)c(=O)cc(CNS(=O)(=O)c2ccccc2Cl)n1C	9000 nM
